pIC50: −log10 of the molar value.
Tests used:
Format in all cases: cell-based
mTORC1 over mTORC2 = assay: mTORC1 selectivity over mTORC2 at 24 hrs (Western blot based pS6K1 and pAKT assay); conditions: 24 hrs
Method: (§1) Western Blot Based pS6K1 and pAKT Assay at 24 and 48 Hour Timepoints
(§2) 1. Seed six well plate with 500,000 PC3 cells per well and incubate for 20˜24 hour.
(§3) 2. Add compounds into the cell plate. Incubate for 24 to 48 hours.
(§4) 4. Plate is placed on ice and the media is removed via aspiration. The wells are washed with 1 mL of 1× PBS and then fully aspirated.
(§5) 5. 110 μL of 1% Triton Lysis Buffer is added and each well is scraped vigorously.
(§6) 6. Cell homogenates are transferred to 1.5 mL eppendorf tubes on ice and spun down at 4° C. for 10 minutes at 10,000 rpm.
(§7) 9. The membranes were washed 3× with TBS-T with a 5 minute incubation between each wash then incubated with secondary antibody (LiCor IRDye 800 Donkey Anti Rabbit) for at least 30 minutes.
(§8) 10. The membranes were washed 3× with TBS-T with a 5 minute incubation between each wash.
(§9) 11. The gels were then incubated for 5 minutes with PBS at room temperature then imaged using a Li-Cor.
“N/A” stands for “not assayed.”

[1] = tested on: mTORC1 pathway (pS6K1 T389) in PC3 cells; assay: Western blot, mTORC1 pathway (pS6K1) in PC3 cells; conditions: PC3 cells, 24 hours
Method: as §1, §2, §3, §4, §5, §6, §7, §8, §9
(§10) The methods employed were substantially similar to those described above. Compounds were evaluated in PC3 cells, Jurkat cells, wild-type mouse embryotic fibroblast (MEF) cells, tuberous sclerosis 2 (TSC2) negative (TSC −/−) MEF cells, and tuberous sclerosis 2 (TSC2) positive (TSC +/+) MEF cells. Cells were incubated with compounds of the present invention for various time periods (e.g., 5 minutes, 15 minutes, 30 minutes, 90 minutes, 24 hours, or 48 hours), and evaluated according to known methodologies, such as those herein described.

[2] = tested on: mTORC2 pathway (Akt phosphorylation) in PC3 cells; assay: Western blot, mTORC2 pathway (pAkt) in PC3 cells; conditions: 24 hours
Method: as §1, §2, §3, §4, §5, §6, §7, §8, §9, §10

[3] = tested on: pS6K1 (p-p70 S6 Kinase (Thr389)) in MCF-7 cells; assay: AlphaLISA Ultra pS6K1 Assay; conditions: Homo sapiens, 1.5 h; MCF7 cells, 90 min
Summary of the method: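 MCF-7 cells were seeded for 20–24 h, refed with fresh medium for 2 h, then treated with compound for 90 min at 0.5% final DMSO. Lysates were frozen at −80 °C, thawed and assayed by AlphaLISA with acceptor then donor beads, 2 h each.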

`CO[C@@H]1C[C@H](C[C@@H](C)[C@@H]2CC(=O)[C@H](C)/C=C(\C)[C@@H](O)[C@@H](OC)C(=O)[C@H](C)C[C@H](C)/C=C/C=C/C=C(\C)[C@@H](OCC(CO)CO)C[C@@H]3CC[C@@H](C)[C@@](O)(O3)C(=O)C(=O)N3CCCC[C@H]3C(=O)O2)CC[C@H]1O` [I-5] was tested, and the “mTORC1 selective @ 24 hrs” value (mTORC1 over mTORC2) was “YES”, the “inhibition of the mTORC1 pathway” value [1] was “strong inhibition” and the “inhibition of mTORC2 (Akt phosphorylation)” value (“inhibition of mTORC2” for short) [2] was “do not inhibit”.

With `CO[C@@H]1C[C@H](C[C@@H](C)[C@@H]2CC(=O)[C@H](C)/C=C(\C)[C@@H](O)[C@@H](OC)C(=O)[C@H](C)C[C@H](C)/C=C/C=C/C=C(\C)[C@@H](OCCCC(=O)N(C)C)C[C@@H]3CC[C@@H](C)[C@@](O)(O3)C(=O)C(=O)N3CCCC[C@H]3C(=O)O2)CC[C@H]1OCCO` [I-62, 4-[[(23E, 25E,27E,28E,35R,36S,37R,38R,40S,42S,44S,45S,46R,47R,57R)-46,57-dihydroxy-45-[(1R)-2-[(1S, 3R,4R)-4-(2-hydroxyethoxy)-3-methoxy-cyclohexyl]-1-methyl-ethyl]-47-methoxy-35, 36,37,38,48,49-hexamethyl-50,51,52,53,54-pentaoxo-69,70-dioxa-58-azatricyclohexatriaconta-23, 25,27(48),28(49)-tetraen-44-yl]oxy]-N,N-dimethyl-butanamide] the pIC50 [3] was 8.00 to 9.00, the “mTORC1 selective @ 24 hrs” value (mTORC1 over mTORC2) was “YES” and the “inhibition of the mTORC1 pathway” value [1] was “strong inhibition”. The “inhibition of mTORC2” value [2] was “do not inhibit”.

With `CO[C@@H]1CC(C[C@@H](C)C2CC(=O)[C@H](C)/C=C(\C)[C@@H](O)[C@@H](OC)C(=O)[C@H](C)C[C@H](C)/C=C/C=C/C=C(\C)[C@@H](OCCOCC(F)(F)F)C[C@@H]3CC[C@@H](C)[C@@](O)(O3)C(=O)C(=O)N3CCCC[C@H]3C(=O)O2)CC[C@H]1OCCO` (stereo partly drawn) [I-71, (21E,23E,25E,26E,33R,34S,35R,36R,38S,40S,42S,43S,44R,45R,54R)-44, 54-dihydroxy-43-[(1R)-2-[(1S,3R,4R)-4-(2-hydroxyethoxy)-3-methoxy-cyclohexyl]-1-methyl-ethyl]-45-methoxy-33, 34,35,36,46,47-hexamethyl-42-[2-(2,2,2-trifluoroethoxy)ethoxy]-65,66-dioxa-56-azatricyclohexatriaconta-21,23,25(46),26(47)-tetraene-48, 49,50,51,52-pentone] the pIC50 [3] was 9.00 to 10.00, the “mTORC1 selective @ 24 hrs” value (mTORC1 over mTORC2) was “YES” and the “inhibition of the mTORC1 pathway” value [1] was “strong inhibition”. The “inhibition of mTORC2” value [2] was “do not inhibit”.

`CO[C@@H]1C[C@H](C[C@@H](C)[C@@H]2CC(=O)[C@H](C)/C=C(\C)[C@@H](O)[C@@H](OC)C(=O)[C@H](C)C[C@H](C)/C=C/C=C/C=C(\C)C(OCCOCCOCCOCCOCCOCCOCCOCCOCCOCCOCCO)C[C@@H]3CC[C@@H](C)[C@@](O)(O3)C(=O)C(=O)N3CCCC[C@H]3C(=O)O2)CC[C@H]1O` (stereo partly drawn) [I-96, (21E,23E,25E,26E,50R,51S,52R,53R,55S,57S,60S,61R,62R,71R)-61, 71-dihydroxy-59-[2-[2-[2-[2-[2-[2-[2-[2-[2-[2-(2-hydroxyethoxy)ethoxy]ethoxy]ethoxy]ethoxy]ethoxy]ethoxy]ethoxy]ethoxy]ethoxy]ethoxy]-60-[(1R)-2-[(1S,3R,4R)-4-hydroxy-3-methoxy-cyclohexyl]-1-methyl-ethyl]-62-methoxy-50, 51,52,53,63,64-hexamethyl-82,83-dioxa-72-azatricyclohexatriaconta-21, 23,25(63),26(64)-tetraene-65,66,67,68,69-pentone] was tested, and the pIC50 [3] was 9.00 to 10.00, the “mTORC1 selective @ 24 hrs” value (mTORC1 over mTORC2) was “YES” and the “inhibition of the mTORC1 pathway” value [1] was “strong inhibition”. For the same compound, the “inhibition of mTORC2” value [2] was “do not inhibit”.

`COCCOCCO[C@@H]1C[C@@H]2CC[C@@H](C)[C@@](O)(O2)C(=O)C(=O)N2CCCC[C@H]2C(=O)O[C@H]([C@H](C)C[C@@H]2CC[C@@H](O)[C@H](OC)C2)CC(=O)[C@H](C)/C=C(\C)[C@@H](O)[C@@H](OC)C(=O)[C@H](C)C[C@H](C)/C=C/C=C/C=C/1C` [I-119, (22E,24E,26E,27E,33R,34S,35R,36R,38S,40S,43S,44R,45R,54R)-44,54-dihydroxy-43-[(1R)-2-[(1S, 3R,4R)-4-hydroxy-3-methoxy-cyclohexyl]-1-methyl-ethyl]-45-methoxy-42-[R-2-(2-methoxyethoxy)ethoxy]-33, 34,35,36,46,47-hexamethyl-64,65-dioxa-55-azatricyclohexatriaconta-22, 24,26(46),27(47)-tetraene-48,49,50,51,52-pentone] was tested, and the pIC50 [3] was > 10.00 and the “mTORC1 selective @ 24 hrs” value (mTORC1 over mTORC2) was “YES”.

In the case of `COCCOCCO[C@H]1C[C@@H]2CC[C@@H](C)[C@@](O)(O2)C(=O)C(=O)N2CCCC[C@H]2C(=O)O[C@H]([C@H](C)C[C@@H]2CC[C@@H](O)[C@H](OC)C2)CC(=O)[C@H](C)/C=C(\C)[C@@H](O)[C@@H](OC)C(=O)[C@H](C)C[C@H](C)/C=C/C=C/C=C/1C` [I-120, (22E,24E,26E,27E,33R,34S,35R,36R,38S,40S,43S,44R,45R,54R)-44, 54-dihydroxy-43-[(1R)-2-[(1S,3R,4R)-4-hydroxy-3-methoxy-cyclohexyl]-I-methyl-ethyl]-45-methoxy-42-[S-2-(2-methoxyethoxy)ethoxy]-33,34,35,36,46,47-hexamethyl-64,65-dioxa-55-azatricyclohexatriaconta-22, 24,26(46),27(47)-tetraene-48,49,50,51,52-pentone], the pIC50 [3] was > 10.00 and the “mTORC1 selective @ 24 hrs” value (mTORC1 over mTORC2) was “YES”.

For `CO[C@H]1C[C@@H]2CC[C@@H](C)[C@@](O)(O2)C(=O)C(=O)N2CCCC[C@H]2C(=O)O[C@H]([C@H](C)C[C@@H]2CC[C@@H](OP(C)(C)=O)[C@H](OC)C2)CC(=O)[C@H](C)/C=C(\C)[C@@H](O)[C@@H](OC)C(=O)[C@H](C)C[C@H](C)/C=C/C=C/C=C/1C` [ridaforolimus, reference compound], the “inhibition of the mTORC1 pathway” value [1] was “strong inhibition” and the “inhibition of mTORC2” value [2] was “dose dependent inhibition”.

In the case of `CO[C@H]1C[C@@H]2CC[C@@H](C)[C@@](O)(O2)C(=O)C(=O)N2CCCC[C@H]2C(=O)O[C@H]([C@H](C)C[C@@H]2CC[C@@H](OC(=O)C(C)(CO)CO)[C@H](OC)C2)CC(=O)[C@H](C)/C=C(\C)[C@@H](O)[C@@H](OC)C(=O)[C@H](C)C[C@H](C)/C=C/C=C/C=C/1C` [temsirolimus, reference compound], the “inhibition of the mTORC1 pathway” value [1] was “strong inhibition” and the “inhibition of mTORC2” value [2] was “dose dependent inhibition”.

— patent publication US11944605B2, “Rapamycin analogs and uses thereof” (Janssen Pharmaceutica NV, priority 2018, dated 2024)
